Laboratory results reported in publication PMC3265452 (PLoS Neglected Tropical Diseases, 2012).
Structures can show the parent of a compound that is named as a salt. Where two headings read alike, the source gives them in different places. Residues, ends and D or L forms follow the SMILES beside them. *: point of attachment. Cbz = O=C(OCc1ccccc1)*

Target: AaDOP2 (Aedes aegypti, UniProt H6D5H2)
Test: AaDOP2 antagonist screen of the LOPAC1280 library (HEK-CRELuc-Aadop2 cells, luminescence)
Assay type: cell-based
[1] = 10 µM compound, 300 nM dopamine, 2 hr, hit = compound effect <20

Chain of AaDOP2 (H6D5H2 1-476): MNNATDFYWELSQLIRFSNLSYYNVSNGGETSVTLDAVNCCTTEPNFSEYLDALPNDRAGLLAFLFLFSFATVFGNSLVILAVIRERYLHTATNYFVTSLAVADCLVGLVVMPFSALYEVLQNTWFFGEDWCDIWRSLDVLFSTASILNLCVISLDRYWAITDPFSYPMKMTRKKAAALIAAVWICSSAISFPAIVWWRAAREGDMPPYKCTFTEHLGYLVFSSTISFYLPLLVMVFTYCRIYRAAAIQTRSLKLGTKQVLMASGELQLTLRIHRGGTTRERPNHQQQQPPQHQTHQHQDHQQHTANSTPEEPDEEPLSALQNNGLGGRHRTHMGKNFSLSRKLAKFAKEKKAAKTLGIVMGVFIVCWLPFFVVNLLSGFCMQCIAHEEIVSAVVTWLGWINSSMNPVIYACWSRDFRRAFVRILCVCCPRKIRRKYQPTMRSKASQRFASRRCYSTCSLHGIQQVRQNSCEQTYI

Structure (SMILES)	Compound effect (percent receptor signaling in presence of test compound, relative lux units relative to the SCH23390 control)	further results
CSC(=N)N.CSC(=N)N.O=S(=O)(O)O [Compound 756, S-Methylisothiourea hemisulfate]		Compound effect (percent receptor signaling in presence of test compound, relative lux units relative to the SCH23390 control) [1]: 99%
CC[N+](CC)(CC)CCOc1ccc(/C=C/c2ccccc2)cc1 [Compound 757, MG 624]	89	
CN[C@H](CC(=O)O)C(=O)O [Compound 758, N-Methyl-D-aspartic acid]	97	
CCCCCCCCCCCCCCCCOCC(COCC(F)(F)F)OP(=O)(O)OC (stereo not shown) [Compound 760, MJ33]	77	
CN1C[C@H](CNC(=O)OCc2ccccc2)C[C@@H]2c3cccc4c3c(cn4C)C[C@H]21 [Compound 761, Metergoline]	33	
C#CCN(C)CCCOc1ccc(Cl)cc1Cl [Compound 763, Clorgyline hydrochloride]	96	
CNc1ncnc2c1ncn2[C@H]1C[C@H](OP(=O)(O)O)[C@@H](COP(=O)(O)O)O1 [Compound 764, MRS 2179]	105	
Cc1cnc(NC(=O)C2=C(O)c3ccccc3S(=O)(=O)N2C)s1 [Compound 765, Meloxicam sodium]	115	
O=c1c(O)c(-c2ccc(O)cc2O)oc2cc(O)cc(O)c12 [Compound 766, Morin]	117	
Nc1cc(N2CCCCC2)nc(N)[n+]1[O-] [Compound 767, Minoxidil]	110	
COc1cc(CCN)ccc1O.Cl [Compound 768, 3-Methoxy-4-hydroxyphenethylamine hydrochloride]	116	
Cc1ccc(Cl)c(Nc2ccccc2C(=O)O)c1Cl [Compound 769, Meclofenamic acid sodium]	107	
Cc1[nH]c(=O)c(C#N)cc1-c1ccncc1 [Compound 770, Milrinone]	104	
Cl.Cl.Cn1cnc(CCN)c1 [Compound 772, 1-Methylhistamine dihydrochloride]	94	
CC(=O)Oc1cc(C(C)C)c(OCCN(C)C)cc1C [Compound 773, Moxisylyte hydrochloride]	33	
CSC(N)=NCCC[C@H](N)C(=O)O [Compound 774, S-Methyl-L-thiocitrulline acetate]	97	
COc1ccc2[nH]cc(CCNC(C)=O)c2c1 [Compound 775, Melatonin]	104	
Cc1cccc(C#Cc2ccccc2)n1.Cl [Compound 778, 6-Methyl-2-(phenylethynyl)pyridine hydrochloride]	74	
COCC(=O)O[C@]1(CCN(C)CCCc2nc3ccccc3[nH]2)CCc2cc(F)ccc2[C@@H]1C(C)C [Compound 779, Mibefradil dihydrochloride]	93	
CNc1ncnc2c1ncn2[C@@H]1O[C@H](CO)[C@@H](O)[C@H]1O [Compound 780, N6-Methyladenosine]	80	
C[C@](N)(CCP(=O)(O)O)C(=O)O.Cl [Compound 781, (S)-MAP4 hydrochloride]		Compound effect (percent receptor signaling in presence of test compound, relative lux units relative to the SCH23390 control) [1]: 100%
Cc1ccccc1/C=C/C1=NCCN1 [Compound 783, Metrazoline oxalate]	91	
CCCn1c(=O)c2[nH]c(-c3ccc(OCC(=O)Nc4ccc(C#N)cc4)cc3)nc2n(CCC)c1=O [Compound 785, MRS 1754]	98	
COc1cc2c(cc1O)CC[C@@H]1[C@@H]2CC[C@]2(C)[C@@H](O)CC[C@@H]12 [Compound 786, 2-methoxyestradiol]	99	
Cl.NCCS [Compound 787, Cysteamine hydrochloride]		Compound effect (percent receptor signaling in presence of test compound, relative lux units relative to the SCH23390 control) [1]: 94%
Nc1ncnc2c1ncn2[C@@H]1O[C@H](COP(=O)(O)CP(=O)(O)OP(=O)([O-])[O-])[C@H](O)C1O.[Li+].[Li+] (stereo partly drawn) [Compound 788, alpha,beta-Methylene adenosine 5'-triphosphate dilithium]	97	

Structure (SMILES)	Compound effect (percent receptor signaling in presence of test compound, relative lux units relative to the SCH23390 control)	further results
COc1ccc(OC)c(C(O)C(C)N)c1 (stereo not shown) [Compound 789, Methoxamine hydrochloride]	92	
O=C1c2c(O)ccc(O)c2C(=O)c2c(NCCNCCO)ccc(NCCNCCO)c21 [Compound 790, Mitoxantrone]	18	inhibition at 10 µM (read-out: % of the SCH23390 effect (percent inhibition of receptor response relative to the SCH23390 control)): 83%
COc1ccc2[nH]cc(CCN)c2c1.Cl [Compound 791, O-Methylserotonin hydrochloride]	118	
C[Se]C[C@H](N)C(=O)O.Cl [Compound 792, Se-(methyl)selenocysteine hydrochloride]	129	
CC(C)[C@H](NC(=O)OCc1ccccc1)C(=O)N[C@H](C=O)Cc1ccccc1 [Compound 793, MDL 28170] (Cbz-Val-Phe-aldehyde)	96	
[H]/N=C(/NC)NCCC[C@H](N)C(=O)O [Compound 795, NG-Monomethyl-L-arginine acetate]	94	
CN1CC[C@]2(CCN3CCc4c(oc5ccccc45)[C@@H]3C2)N(C)C1=O [Compound 796, MK-912]	73	
Cc1nc(N=Nc2ccc(C(=O)O)cc2)c(COP(=O)(O)O)c(C=O)c1O [Compound 798, MRS 2159]	91	
COc1ccc(NC(=O)c2ccc(-c3ccc(-c4noc(C)n4)cc3C)cc2)cc1N1CCN(C)CC1.Cl [Compound 799, GR 127935 hydrochloride]		Compound effect (percent receptor signaling in presence of test compound, relative lux units relative to the SCH23390 control) [1]: 90%
NC(=O)COc1c(F)cc(SCCNS(=O)(=O)c2ccccc2)cc1F [Compound 800, 2,6-Difluoro-4-[2-(phenylsulfonylamino)ethylthio]phenoxyacetamide]	89	
CC#C[C@]1(O)CC[C@H]2[C@@H]3CCC4=CC(=O)CCC4=C3[C@@H](c3ccc(N(C)C)cc3)C[C@@]21C [Compound 801, Mifepristone]	94	
C[C@](N)(Cc1ccc(O)cc1)C(=O)O [Compound 802, L-alpha-Methyl-p-tyrosine]	100	
CCOC(=O)C1=C(C)NC(=S)NC1c1cccc(O)c1 (stereo not shown) [Compound 803, Monastrol]	103	
Cn1ccnc1 [Compound 804, 1-Methylimidazole]	100	
CNC1(C)C2CCC(C2)C1(C)C (stereo not shown) [Compound 805, Mecamylamine hydrochloride]	114	
CC12CC3CC(C)(C1)CC(N)(C3)C2 [Compound 807, Memantine hydrochloride]	91	
CN(N=O)c1ccc(O)c(O)c1 [Compound 808, Me-3,4-dephostatin]	101	
CN(C)c1ccc(O)c2c1C[C@H]1C[C@H]3[C@H](N(C)C)C(O)=C(C(N)=O)C(=O)[C@@]3(O)C(O)=C1C2=O [Compound 809, Minocycline hydrochloride]	94	
CNCCNS(=O)(=O)c1cccc2cnccc12.Cl.Cl [Compound 811, H-8 dihydrochloride]		Compound effect (percent receptor signaling in presence of test compound, relative lux units relative to the SCH23390 control) [1]: 43%
CCCN(CCC)C(=O)C(CCC(=O)O)NC(=O)c1ccccc1 (stereo not shown) [Compound 812, Proglumide]	97	
COc1ccccc1CNCCCCCCNCCCCCCCCNCCCCCCNCc1ccccc1OC [Compound 815, Methoctramine tetrahydrochloride]	66	
C[C@@]12N[C@@H](Cc3ccccc31)c1ccccc12.O=C(O)/C=C\C(=O)O [Compound 817, (-)-MK-801 hydrogen maleate]	98	
Cc1[nH]c2ccc(O)cc2c1CCN.O=C(O)/C=C\C(=O)O [Compound 818, 2-Methyl-5-hydroxytryptamine maleate]	102	
CC(N)Cc1c[nH]c2ccc(O)cc12.O=C(O)/C=C\C(=O)O (stereo not drawn) [Compound 819, alpha-Methyl-5-hydroxytryptamine maleate]	92	
Cc1ccccc1N1C(=O)c2cc(S(N)(=O)=O)c(Cl)cc2NC1C (stereo not shown) [Compound 820, Metolazone]	90	
